Read-outs that look alike come from different tables or passages of the source.
Legend:
[1] = test system: skeletal muscle or adipocytes; conditions: whole cells such as skeletal muscle or adipocytes; cited from earlier work
[2] = target: T1, GST/PTP-S31 fusion protein (S31D) (Homo sapiens, UniProt Q9UMZ3); assay: PTP assay of GST/PTP-S31D fusion protein on glutathione-Sepharose beads, substrate pNP-P, effect of agents; type: biochemical; conditions: 25 mM pNP-P
T1 construct: p16 encodes a fusion protein of glutathione-S-transferase and PTP-S31D (starting with the first methionine); made in house; host or cells: E. coli DH5α and SURE
T1 sequence (Q9UMZ3 with tags, fused parts or gaps): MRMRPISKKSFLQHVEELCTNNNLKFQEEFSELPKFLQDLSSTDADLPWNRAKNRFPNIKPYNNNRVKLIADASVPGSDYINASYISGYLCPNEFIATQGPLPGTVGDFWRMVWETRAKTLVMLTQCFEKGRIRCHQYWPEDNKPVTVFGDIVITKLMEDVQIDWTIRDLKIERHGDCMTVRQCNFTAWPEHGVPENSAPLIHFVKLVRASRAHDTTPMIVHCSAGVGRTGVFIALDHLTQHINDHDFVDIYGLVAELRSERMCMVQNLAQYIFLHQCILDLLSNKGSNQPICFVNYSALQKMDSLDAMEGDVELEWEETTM
Procedure: The activity of PTP-S31D towards the substrate p-nitrophenyl phosphate (pNP-P) was measured essentially as described by Tonks et al., J. Biol. Chem. 263:6731-6737 (1988)). Increasing amounts of the glutathione-Sepharose beads with GST/PTP-S31D, GST/PTP-S31C and GST, respectively, from above were incubated with 25 mM pNP-P at room temperature in a reaction mixture containing 50 mM 2-(N-morpholino) ethane sulfonic acid (MES) pH 5.5, 10 mM dithiothreitol, and 5 mM ethylenediamine tetraacetic acid (EDTA). The reaction was stopped by addition of equal volumes of 0.4 M NaOH. After centrifugation, the supernatants were transferred to microtiter plates and the absorbance at 405 nm was read with a Dynatech MR5000 reader.
The activity of the GST/PTP-S31D fusion protein towards pNP-P is measured as described in Section 10, above. The substances to be analyzed for their ability to stimulate or inhibit phosphatase activity are added to the GST/PTP-S31D fusion protein 5 minutes prior to the addition of pNP-P. A similar procedure is used for PTP-S31D expressed in 293 cells, where the PTP-S31D/293 cell lysate is used directly.
The indicated concentrations of the agents are the final concentrations in the reaction mixture after addition of the substrate, pNP-P. The phosphatase assay mixture contained 50 mM 2-(N-Morpholino)ethane sulfonic acid (MES) pH 5.5, 10 mM dithiothreitol, 25 mM pNP-P and 2 μl of the GST/PTP-S31-Sepharose suspension. When testing orthovanadate, poly(Glu/Tyr) 4:1 and poly-L-lysine, 5 mM EDTA was included in the assay mixture. The reaction was carried out at room temperature and stopped after 30 minutes by addition of equal volumes of 0.4M NaOH. After centrifugation, the supernatants were transferred to microtiter plates and the absorbance at 405 nm read with a Dynatech MR5000 plate reader. For comparison, Table I includes published data of the activity of PTPB and LAR using Raytide as a substrate (Itoh et al (J. Biol. Chem. 267: 12356-12363 (1992)).

PTPβ = PTPβ (Homo sapiens, UniProt P23467); conditions: Raytide substrate, cited from earlier work
LAR = conditions: Raytide substrate, cited from earlier work
[3] = agent 1 μg/ml final, MES pH 5.5, 5 mM EDTA, 30 min room temperature
[4] = agent 10 μg/ml final, MES pH 5.5, 5 mM EDTA, 30 min room temperature
[5] = agent 100 μg/ml final, MES pH 5.5, 5 mM EDTA, 30 min room temperature
[6] = agent 1 mM final, MES pH 5.5, 30 min room temperature
[7] = agent 10 mM final, MES pH 5.5, 30 min room temperature
[8] = agent 0.1 mM final, MES pH 5.5, 30 min room temperature

Chain of PTPβ (P23467 1643-1997 limits assumed): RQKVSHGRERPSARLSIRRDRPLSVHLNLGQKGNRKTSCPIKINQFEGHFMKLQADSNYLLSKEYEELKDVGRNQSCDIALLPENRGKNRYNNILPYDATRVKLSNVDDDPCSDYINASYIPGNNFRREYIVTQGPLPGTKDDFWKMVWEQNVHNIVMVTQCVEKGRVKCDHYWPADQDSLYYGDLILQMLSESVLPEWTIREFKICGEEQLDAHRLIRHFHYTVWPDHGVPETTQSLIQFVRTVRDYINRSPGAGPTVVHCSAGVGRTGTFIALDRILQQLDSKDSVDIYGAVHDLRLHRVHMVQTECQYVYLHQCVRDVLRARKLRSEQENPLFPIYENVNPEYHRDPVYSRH

pervanadate
insulin response of whole cells [1]: almost full insulin response

poly-L-lysine
PTP Activity (% of control) S31D [2, 3]: 156 % of control | PTP Activity (% of control) S31D [2, 4]: 172 % of control | PTP Activity (% of control) S31D [2, 5]: 192 % of control | PTP Activity (% of control) PTPβ (PTPβ; agent 1 μg/ml): 239 % of control | PTP Activity (% of control) PTPβ (PTPβ; agent 10 μg/ml): 653 % of control | PTP Activity (% of control) PTPβ (PTPβ; agent 100 μg/ml): 125 % of control | PTP Activity (% of control) LAR (LAR; agent 1 μg/ml): 123 % of control | PTP Activity (% of control) LAR (LAR; agent 10 μg/ml): 230 % of control | PTP Activity (% of control) LAR (LAR; agent 100 μg/ml): 247 % of control

[Cl-].[Cl-].[Mg+2] [MgCl2]
PTP Activity (% of control) S31D [2, 6]: 123 % of control | PTP Activity (% of control) S31D [2, 7]: 140 % of control | PTP Activity (% of control) PTPβ (PTPβ; agent 1 mM): 90 % of control | PTP Activity (% of control) PTPβ (PTPβ; agent 10 mM): 141 % of control | PTP Activity (% of control) LAR (LAR; agent 1 mM): 119 % of control | PTP Activity (% of control) LAR (LAR; agent 10 mM): 56 % of control

[O]=[V]([O-])([O-])[O-] [Orthovanadate, orthovanadate]
PTP Activity (% of control) S31D [2, 8]: 64 % of control | PTP Activity (% of control) S31D [2, 6]: 23 % of control | PTP Activity (% of control) PTPβ (PTPβ; agent 0.1 mM): 33 % of control | PTP Activity (% of control) PTPβ (PTPβ; agent 1 mM): 6 % of control | PTP Activity (% of control) LAR (LAR; agent 0.1 mM): 59 % of control | PTP Activity (% of control) LAR (LAR; agent 1 mM): 25 % of control

poly(Glu/Tyr) 4:1 [Poly (Glu/Tyr)]
PTP Activity (% of control) S31D [2, 3]: 84 % of control | PTP Activity (% of control) S31D [2, 4]: 85 % of control | PTP Activity (% of control) S31D [2, 5]: 77 % of control | PTP Activity (% of control) PTPβ (PTPβ; agent 1 μg/ml): 97 % of control | PTP Activity (% of control) PTPβ (PTPβ; agent 10 μg/ml): 85 % of control | PTP Activity (% of control) PTPβ (PTPβ; agent 100 μg/ml): 61 % of control | PTP Activity (% of control) LAR (LAR; agent 1 μg/ml): 103 % of control | PTP Activity (% of control) LAR (LAR; agent 10 μg/ml): 97 % of control | PTP Activity (% of control) LAR (LAR; agent 100 μg/ml): 96 % of control

[Cl-].[Cl-].[Zn+2] [ZnCl2]
PTP Activity (% of control) S31D [2, 8]: 68 % of control | PTP Activity (% of control) S31D [2, 6]: 13 % of control | PTP Activity (% of control) S31D [2, 7]: 9 % of control | PTP Activity (% of control) PTPβ (PTPβ; agent 0.1 mM): 18 % of control | PTP Activity (% of control) PTPβ (PTPβ; agent 1 mM): 3 % of control | PTP Activity (% of control) PTPβ (PTPβ; agent 10 mM): 0 % of control | PTP Activity (% of control) LAR (LAR; agent 0.1 mM): 90 % of control | PTP Activity (% of control) LAR (LAR; agent 1 mM): 120 % of control | PTP Activity (% of control) LAR (LAR; agent 10 mM): 6 % of control

[Cl][Mn][Cl] [MnCl2]
PTP Activity (% of control) S31D [2, 6]: 110 % of control | PTP Activity (% of control) S31D [2, 7]: 140 % of control | PTP Activity (% of control) PTPβ (PTPβ; agent 1 mM): 85 % of control | PTP Activity (% of control) PTPβ (PTPβ; agent 10 mM): 64 % of control | PTP Activity (% of control) LAR (LAR; agent 1 mM): 72 % of control | PTP Activity (% of control) LAR (LAR; agent 10 mM): 30 % of control
